Laboratory results taken from patent publication US20100035756A1, “TRIAZOLOPHYRIDINE DERIVATIVES AS HERBICIDES” (SYNGENTA LIMITED, priority 2006, published 2010).

Legend:
Format in all cases: in vivo
Stellaria media = assay: Microscreen (pre-emergence), Example B3; conditions: preemergent application, 250 g/ha, evaluated 8 days later, 100%=total damage
Agrostis tenuis = assay: Microscreen (pre-emergence), Example B3; conditions: preemergent application, 250 g/ha, evaluated 8 days later, 100%=total damage
[1] = test system: Monocotyledonous and dicotyledonous test plants; assay: Herbicidal action prior to emergence of the plants (pre-emergence action), Example B1; conditions: preemergence application, 250 g/ha, evaluated after 4 weeks, 100%=total damage, 0%=no damage
Protocol: (§1) Monocotyledonous and dicotyledonous test plants are sown in seed trays in standard soil. Immediately after sowing, the test compounds are applied by spraying in the form of an aqueous suspension (prepared from a wettable powder (Example F3, b) according to WO 97/34485) or in the form of an emulsion (prepared from an emulsifiable concentrate (Example F1, c) according to WO 97/34485) in a concentration of 250 g/ha. The test plants are then grown in a greenhouse under optimum conditions. After a 4-week test period, the test is evaluated (100%=total damage to plant; 0%=no damage to plant; NC not evaluated).

Amaranthus retroflexus = assay: Microscreen (pre-emergence), Example B3; conditions: preemergent application, 250 g/ha, evaluated 8 days later, 100%=total damage
Digitaria sanguinalis = assay: Microscreen (pre-emergence), Example B3; conditions: preemergent application, 250 g/ha, evaluated 8 days later, 100%=total damage
Solanum nigrum = assay: Microscreen (pre-emergence), Example B3; conditions: preemergent application, 250 g/ha, evaluated 8 days later, 100%=total damage
Nasturtium officinale = assay: Microscreen (pre-emergence), Example B3; conditions: preemergent application, 250 g/ha, evaluated 8 days later, 100%=total damage
Setaria italica = assay: Microscreen (pre-emergence), Example B3; conditions: preemergent application, 250 g/ha, evaluated 8 days later, 100%=total damage
[2] = test system: Monocotyledonous and dicotyledonous test plants; assay: Herbicidal action after emergence of the plants (post-emergence herbicidal action), Example B2; conditions: postemergent application, 125 g/ha, 2- to 3-leaf stage, evaluated after 2-3 weeks, 100%=total damage
Protocol: as §1, with “When the test plants are at the 2- to 3-leaf stage,” for “Immediately after sowing,”, “125” for “250”, “grown on” for “grown”, “2- to 3-week” for “4-week”, “plant).” for “plant; NC not evaluated).”

| Structure (SMILES) | herbicidal damage, Stellaria (Stellaria media) [%] | herbicidal damage, Agrostis (Agrostis tenuis) [%] | herbicidal damage, ABUTH [1] [%] | herbicidal damage, AMARE [1] [%] | herbicidal damage, BRAPL [1] [%] | herbicidal damage, DIGSA [1] [%] | herbicidal damage, ECHCG [1] [%] | herbicidal damage, SETFA [1] [%] | herbicidal damage, STEME [1] [%] | herbicidal damage, VERPE [1] [%] | herbicidal damage, Amaranthus (Amaranthus retroflexus) [%] | herbicidal damage, Digitaria (Digitaria sanguinalis) [%] | herbicidal damage, Solanum (Solanum nigrum) [%] | herbicidal damage, Nasturtium (Nasturtium officinale) [%] | herbicidal damage, Setaria (Setaria italica) [%] | herbicidal damage, ABUTH [2] [%] | herbicidal damage, AMARE [2] [%] | herbicidal damage, CHEAL [2] [%] | herbicidal damage, DIGSA [2] [%] | herbicidal damage, SETFA [2] [%] | also measured |
| --- | --- | --- | --- | --- | --- | --- | --- | --- | --- | --- | --- | --- | --- | --- | --- | --- | --- | --- | --- | --- | --- |
| Cc1nnc2c(C(=O)C3=C(O)C4(CCC3=O)CC4)ccc(C(F)(F)F)n12 [41.2] | 90 | 100 | 80 | 100 | 80 | 100 | 100 | 80 | 70 | 90 | 100 | 100 | 100 | 100 | 80 | – | – | – | – | – | – |
| CCCC1CCC(=O)C(C(=O)c2ccc(C(F)(F)F)n3c(C)nnc23)=C1O (stereo not drawn) [41.6] | 80 | 100 | 70 | 100 | 60 | 90 | 70 | 70 | 50 | 50 | 100 | 90 | 90 | 100 | 0 | 80 | 80 | 80 | 80 | 70 | herbicidal damage, SINAR [2]: 80%; herbicidal damage, VERPE [2]: 80%; herbicidal damage, XANST [2]: 80% |
| Cc1nnc2c(C(=O)C3C(=O)C4CCC(C4)C3=O)ccc(C(F)(F)F)n12 (stereo not drawn) [Compound 1.4, 3-(3-Methyl-5-trifluoromethyl-[1,2,4]triazolo[4,3-a]pyridine-8-carbonyl)-bicyclo[3.2.1]octane-2,4-dione] | 80 | 50 | 100 | 100 | 70 | 100 | 90 | 90 | 100 | 100 | 90 | 90 | 90 | 90 | 70 | 70 | 70 | 90 | 80 | 90 | herbicidal damage, SINAR [2]: 80%; herbicidal damage, VERPE [2]: 80%; herbicidal damage, XANST [2]: 70% |
| CCc1nnc2c(C(=O)C3=C(O)C4CCC(C4)C3=O)ccc(C(F)(F)F)n12 (stereo not drawn) [Compound 1.5] | 60 | 100 | 100 | 100 | 60 | 100 | 60 | 80 | 100 | 70 | 30 | 80 | 100 | 80 | 50 | 90 | 70 | 80 | 70 | 60 | herbicidal damage, SINAR [2]: 80%; herbicidal damage, VERPE [2]: 70%; herbicidal damage, XANST [2]: 80% |
| O=C(C1=C(O)C2CCC(C2)C1=O)c1ccc(C(F)(F)F)n2c(C3CC3)nnc12 (stereo not drawn) [Compound 1.8] | 80 | 100 | 100 | 100 | 100 | 100 | 40 | 60 | – | 70 | 0 | 100 | 90 | 100 | 100 | 90 | 90 | 90 | 80 | 80 | herbicidal damage, SINAR [2]: 90%; herbicidal damage, VERPE [2]: 100%; herbicidal damage, XANST [2]: 90% |
| Cc1nnc2c(C(=O)C3=C(O)CCCC3=O)ccc(C(F)(F)F)n12 [Compound 3.4] | 70 | 100 | 80 | 60 | 80 | 70 | 70 | 30 | 30 | 50 | 80 | 100 | 0 | 80 | 60 | 90 | 80 | 60 | 80 | 80 | herbicidal damage, SINAR [2]: 90%; herbicidal damage, VERPE [2]: 100%; herbicidal damage, XANST [2]: 80% |
| Cc1nnc2c(C(=O)C3=C(O)CC(C)CC3=O)ccc(C(F)(F)F)n12 (stereo not drawn) [Compound 4.3] | 80 | 100 | 70 | 100 | 100 | 100 | 100 | 40 | 80 | 100 | 100 | 100 | 100 | 100 | 60 | – | – | – | – | – | – |
| CC1(C)C(=O)C(C(=O)c2ccc(C(F)(F)F)n3c(-c4ccc(Cl)cc4)nnc23)=C(O)C(C)(C)C1=O [Compound 5.10] | – | – | 100 | 100 | 20 | 40 | 20 | 0 | 30 | – | – | – | – | – | – | 80 | 80 | 70 | 20 | 30 | herbicidal damage, SINAR [2]: 80%; herbicidal damage, VERPE [2]: 100%; herbicidal damage, XANST [2]: 80% |
| Cc1nnc2c(C(=O)c3cnn(C)c3O)ccc(C(F)(F)F)n12 [Compound 6.3] | – | – | 10 | 70 | – | 30 | 30 | 0 | 40 | 80 | – | – | – | – | – | 60 | 90 | 70 | 80 | 60 | herbicidal damage, SINAR [2]: 80%; herbicidal damage, VERPE [2]: 80%; herbicidal damage, XANST [2]: 80% |
